Our source for the IC50 values is publication PMC4774911, “Biochemical Screening of Five Protein Kinases from Plasmodium falciparum against 14,000 Cell-Active Compounds” (PLoS ONE, 2016).

“And” between values parts separate entries of the source, which are not always exact repeats. Equal entries are not always repeated.

Among the targets are MAP3K1 (Homo sapiens, UniProt Q13233); MAP4K5 (Homo sapiens, UniProt Q9Y4K4); CAMKK2 (Homo sapiens, UniProt Q96RR4); MARK3 (Homo sapiens, UniProt P27448); CSNK2A1 (Homo sapiens, UniProt P68400).
Holding throughout (experiment): biochemical
The target in a further assay is T1, ACVR1B (Homo sapiens, UniProt P36896).
T1 sequence (P36896 1-505): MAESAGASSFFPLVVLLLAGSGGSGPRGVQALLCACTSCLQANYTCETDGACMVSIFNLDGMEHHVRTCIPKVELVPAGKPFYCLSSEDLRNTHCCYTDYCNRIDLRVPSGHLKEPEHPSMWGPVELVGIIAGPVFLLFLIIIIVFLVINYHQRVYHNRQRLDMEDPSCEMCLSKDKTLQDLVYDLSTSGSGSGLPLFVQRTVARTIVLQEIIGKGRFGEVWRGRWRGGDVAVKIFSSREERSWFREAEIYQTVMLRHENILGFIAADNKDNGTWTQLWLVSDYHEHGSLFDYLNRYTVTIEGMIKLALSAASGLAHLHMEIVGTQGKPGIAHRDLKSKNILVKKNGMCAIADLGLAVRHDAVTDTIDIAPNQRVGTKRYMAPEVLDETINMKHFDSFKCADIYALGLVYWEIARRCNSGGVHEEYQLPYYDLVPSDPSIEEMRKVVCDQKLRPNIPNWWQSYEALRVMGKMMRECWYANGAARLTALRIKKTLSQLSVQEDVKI

In the next assay the target is T2, ULK3 (Homo sapiens, UniProt Q6PHR2).
T2 sequence (Q6PHR2 1-472): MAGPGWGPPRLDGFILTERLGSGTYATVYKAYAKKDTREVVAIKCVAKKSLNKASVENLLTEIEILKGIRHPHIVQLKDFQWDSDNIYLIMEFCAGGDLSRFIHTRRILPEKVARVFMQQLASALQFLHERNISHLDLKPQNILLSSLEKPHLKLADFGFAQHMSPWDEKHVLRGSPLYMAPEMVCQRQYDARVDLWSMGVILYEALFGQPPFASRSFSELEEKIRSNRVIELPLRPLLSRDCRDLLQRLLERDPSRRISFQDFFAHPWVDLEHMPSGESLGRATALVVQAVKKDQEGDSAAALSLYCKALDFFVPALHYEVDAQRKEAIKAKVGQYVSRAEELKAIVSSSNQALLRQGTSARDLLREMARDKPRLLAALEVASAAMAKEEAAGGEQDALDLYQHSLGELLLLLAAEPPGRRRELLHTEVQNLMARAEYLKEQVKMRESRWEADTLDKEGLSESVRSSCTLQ

The next assay deals with T3, MAP3K6 (Homo sapiens, UniProt O95382).
T3 sequence (O95382 1-1288): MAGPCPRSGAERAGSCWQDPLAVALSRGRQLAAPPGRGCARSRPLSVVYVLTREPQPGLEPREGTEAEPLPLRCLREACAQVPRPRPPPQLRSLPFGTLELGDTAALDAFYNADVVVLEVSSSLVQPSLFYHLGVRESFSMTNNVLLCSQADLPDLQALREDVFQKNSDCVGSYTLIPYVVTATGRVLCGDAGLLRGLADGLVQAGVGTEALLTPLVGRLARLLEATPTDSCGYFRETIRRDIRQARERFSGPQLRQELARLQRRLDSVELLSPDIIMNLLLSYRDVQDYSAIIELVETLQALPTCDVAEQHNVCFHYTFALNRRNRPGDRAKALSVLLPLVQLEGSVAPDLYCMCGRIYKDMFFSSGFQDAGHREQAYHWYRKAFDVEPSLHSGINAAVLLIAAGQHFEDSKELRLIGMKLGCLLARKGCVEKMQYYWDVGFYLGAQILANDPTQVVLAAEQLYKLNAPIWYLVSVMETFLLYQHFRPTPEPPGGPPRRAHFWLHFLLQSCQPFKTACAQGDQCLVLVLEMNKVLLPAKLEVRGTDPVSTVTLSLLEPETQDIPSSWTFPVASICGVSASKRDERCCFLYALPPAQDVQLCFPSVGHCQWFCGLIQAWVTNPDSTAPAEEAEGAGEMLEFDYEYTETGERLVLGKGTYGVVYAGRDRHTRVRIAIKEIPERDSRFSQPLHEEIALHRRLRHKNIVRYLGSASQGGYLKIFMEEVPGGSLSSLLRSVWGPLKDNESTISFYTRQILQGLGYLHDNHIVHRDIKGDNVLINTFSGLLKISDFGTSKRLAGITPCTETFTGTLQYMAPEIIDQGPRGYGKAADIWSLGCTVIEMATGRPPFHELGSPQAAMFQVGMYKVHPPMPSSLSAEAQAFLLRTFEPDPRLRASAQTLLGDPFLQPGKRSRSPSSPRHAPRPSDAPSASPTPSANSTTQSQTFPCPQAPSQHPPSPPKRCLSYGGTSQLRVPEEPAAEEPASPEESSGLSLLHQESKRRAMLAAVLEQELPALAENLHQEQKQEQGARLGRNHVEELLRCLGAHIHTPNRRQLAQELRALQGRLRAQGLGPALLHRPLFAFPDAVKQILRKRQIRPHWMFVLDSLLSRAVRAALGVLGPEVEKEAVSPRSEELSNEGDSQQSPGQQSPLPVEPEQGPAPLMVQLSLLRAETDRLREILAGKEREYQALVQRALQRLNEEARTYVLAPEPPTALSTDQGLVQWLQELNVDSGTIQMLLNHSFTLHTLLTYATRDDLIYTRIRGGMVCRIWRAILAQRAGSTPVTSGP

CAMKK2, sequence (Q96RR4 whole entry): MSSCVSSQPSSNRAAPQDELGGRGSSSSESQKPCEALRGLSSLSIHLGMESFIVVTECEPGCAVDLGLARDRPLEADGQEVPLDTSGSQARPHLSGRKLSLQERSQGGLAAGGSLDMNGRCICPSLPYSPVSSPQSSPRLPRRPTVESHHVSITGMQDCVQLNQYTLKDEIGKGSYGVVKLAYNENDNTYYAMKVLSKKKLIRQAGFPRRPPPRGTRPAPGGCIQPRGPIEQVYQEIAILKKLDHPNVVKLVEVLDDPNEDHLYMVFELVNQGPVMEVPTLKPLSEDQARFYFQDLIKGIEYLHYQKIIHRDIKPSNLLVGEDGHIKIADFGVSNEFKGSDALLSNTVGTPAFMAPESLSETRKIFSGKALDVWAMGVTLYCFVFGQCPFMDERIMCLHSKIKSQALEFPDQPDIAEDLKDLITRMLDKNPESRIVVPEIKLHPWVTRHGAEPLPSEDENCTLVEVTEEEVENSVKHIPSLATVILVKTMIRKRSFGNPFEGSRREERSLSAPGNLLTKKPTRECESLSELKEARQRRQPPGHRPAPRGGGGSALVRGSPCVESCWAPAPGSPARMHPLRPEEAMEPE
MAP4K5, sequence (Q9Y4K4 whole entry): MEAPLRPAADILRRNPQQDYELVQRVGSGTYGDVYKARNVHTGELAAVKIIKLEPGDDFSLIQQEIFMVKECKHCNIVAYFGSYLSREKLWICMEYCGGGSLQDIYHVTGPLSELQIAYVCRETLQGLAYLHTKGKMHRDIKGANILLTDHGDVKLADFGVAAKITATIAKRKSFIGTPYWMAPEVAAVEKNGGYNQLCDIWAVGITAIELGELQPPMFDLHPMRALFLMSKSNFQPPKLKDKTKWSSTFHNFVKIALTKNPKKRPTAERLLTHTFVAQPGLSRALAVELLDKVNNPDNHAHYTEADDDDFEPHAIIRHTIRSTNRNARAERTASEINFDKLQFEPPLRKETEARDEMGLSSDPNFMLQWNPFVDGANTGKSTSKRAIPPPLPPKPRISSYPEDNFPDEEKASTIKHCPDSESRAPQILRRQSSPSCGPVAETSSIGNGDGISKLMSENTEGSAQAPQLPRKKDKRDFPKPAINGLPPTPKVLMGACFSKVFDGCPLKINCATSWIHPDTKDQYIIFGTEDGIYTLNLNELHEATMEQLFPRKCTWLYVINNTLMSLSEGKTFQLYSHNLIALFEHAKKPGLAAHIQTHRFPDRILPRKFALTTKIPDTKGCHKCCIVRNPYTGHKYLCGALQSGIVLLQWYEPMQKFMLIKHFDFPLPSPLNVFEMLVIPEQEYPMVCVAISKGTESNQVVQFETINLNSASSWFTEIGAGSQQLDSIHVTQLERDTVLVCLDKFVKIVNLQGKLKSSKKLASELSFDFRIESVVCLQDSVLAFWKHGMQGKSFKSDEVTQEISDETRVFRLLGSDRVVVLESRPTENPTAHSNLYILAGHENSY
MARK3, sequence (P27448 whole entry): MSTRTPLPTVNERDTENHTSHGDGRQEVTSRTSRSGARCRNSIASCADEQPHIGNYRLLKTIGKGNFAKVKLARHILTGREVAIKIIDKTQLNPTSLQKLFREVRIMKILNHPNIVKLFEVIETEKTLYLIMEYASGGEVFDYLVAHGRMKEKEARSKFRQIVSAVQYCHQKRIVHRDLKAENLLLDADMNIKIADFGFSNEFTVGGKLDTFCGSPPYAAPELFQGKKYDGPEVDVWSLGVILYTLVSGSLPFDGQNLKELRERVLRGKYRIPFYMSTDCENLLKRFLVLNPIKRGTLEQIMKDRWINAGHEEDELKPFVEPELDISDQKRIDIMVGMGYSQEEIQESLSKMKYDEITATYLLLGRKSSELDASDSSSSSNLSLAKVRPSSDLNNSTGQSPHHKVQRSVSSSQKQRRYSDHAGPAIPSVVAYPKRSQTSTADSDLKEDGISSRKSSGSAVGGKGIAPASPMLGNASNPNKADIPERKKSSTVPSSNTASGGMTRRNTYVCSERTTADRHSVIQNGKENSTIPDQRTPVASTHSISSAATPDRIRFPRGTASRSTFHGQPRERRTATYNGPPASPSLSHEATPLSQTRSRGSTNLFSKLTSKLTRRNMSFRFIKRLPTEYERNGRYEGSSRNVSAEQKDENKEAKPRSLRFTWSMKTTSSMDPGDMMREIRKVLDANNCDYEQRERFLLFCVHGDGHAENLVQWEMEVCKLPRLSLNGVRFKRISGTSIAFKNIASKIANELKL
MAP3K1, sequence (Q13233 whole entry): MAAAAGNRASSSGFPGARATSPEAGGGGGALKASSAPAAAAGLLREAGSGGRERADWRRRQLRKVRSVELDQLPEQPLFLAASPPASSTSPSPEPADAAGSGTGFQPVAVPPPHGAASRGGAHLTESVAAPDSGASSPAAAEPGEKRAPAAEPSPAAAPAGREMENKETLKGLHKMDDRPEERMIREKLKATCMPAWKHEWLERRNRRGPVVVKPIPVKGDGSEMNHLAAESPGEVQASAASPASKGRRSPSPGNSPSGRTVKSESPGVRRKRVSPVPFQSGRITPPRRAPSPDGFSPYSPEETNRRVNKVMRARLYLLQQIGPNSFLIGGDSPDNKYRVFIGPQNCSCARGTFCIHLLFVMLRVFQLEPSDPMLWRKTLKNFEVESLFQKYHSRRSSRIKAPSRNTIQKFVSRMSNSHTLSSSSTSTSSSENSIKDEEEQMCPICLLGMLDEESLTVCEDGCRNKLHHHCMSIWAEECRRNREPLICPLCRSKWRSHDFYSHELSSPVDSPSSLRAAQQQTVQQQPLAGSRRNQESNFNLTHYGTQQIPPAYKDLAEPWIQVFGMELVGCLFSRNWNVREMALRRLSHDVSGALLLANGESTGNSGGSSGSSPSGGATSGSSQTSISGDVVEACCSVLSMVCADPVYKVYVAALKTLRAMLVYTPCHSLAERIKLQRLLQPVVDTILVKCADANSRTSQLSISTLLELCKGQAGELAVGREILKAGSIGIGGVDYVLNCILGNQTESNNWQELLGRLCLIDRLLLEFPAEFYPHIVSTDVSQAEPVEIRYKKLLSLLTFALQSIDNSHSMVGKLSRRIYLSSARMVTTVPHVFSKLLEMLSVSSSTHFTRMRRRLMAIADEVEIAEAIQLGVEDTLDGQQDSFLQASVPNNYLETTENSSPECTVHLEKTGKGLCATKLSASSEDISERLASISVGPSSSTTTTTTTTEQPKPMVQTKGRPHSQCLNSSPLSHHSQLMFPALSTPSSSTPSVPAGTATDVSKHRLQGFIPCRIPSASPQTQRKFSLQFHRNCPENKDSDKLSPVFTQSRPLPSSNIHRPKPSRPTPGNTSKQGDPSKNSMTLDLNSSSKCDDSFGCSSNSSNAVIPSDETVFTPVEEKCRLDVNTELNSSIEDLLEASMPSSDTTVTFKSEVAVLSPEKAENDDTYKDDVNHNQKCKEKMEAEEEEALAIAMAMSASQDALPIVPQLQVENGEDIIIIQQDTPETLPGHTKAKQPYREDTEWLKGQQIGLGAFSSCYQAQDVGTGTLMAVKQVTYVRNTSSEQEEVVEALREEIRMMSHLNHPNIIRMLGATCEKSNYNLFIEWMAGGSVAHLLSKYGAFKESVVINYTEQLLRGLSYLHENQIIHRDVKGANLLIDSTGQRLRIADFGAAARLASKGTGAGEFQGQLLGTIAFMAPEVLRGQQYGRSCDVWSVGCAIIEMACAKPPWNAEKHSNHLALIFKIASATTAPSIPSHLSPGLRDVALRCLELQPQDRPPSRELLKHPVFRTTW
CSNK2A1, sequence (P68400 whole entry): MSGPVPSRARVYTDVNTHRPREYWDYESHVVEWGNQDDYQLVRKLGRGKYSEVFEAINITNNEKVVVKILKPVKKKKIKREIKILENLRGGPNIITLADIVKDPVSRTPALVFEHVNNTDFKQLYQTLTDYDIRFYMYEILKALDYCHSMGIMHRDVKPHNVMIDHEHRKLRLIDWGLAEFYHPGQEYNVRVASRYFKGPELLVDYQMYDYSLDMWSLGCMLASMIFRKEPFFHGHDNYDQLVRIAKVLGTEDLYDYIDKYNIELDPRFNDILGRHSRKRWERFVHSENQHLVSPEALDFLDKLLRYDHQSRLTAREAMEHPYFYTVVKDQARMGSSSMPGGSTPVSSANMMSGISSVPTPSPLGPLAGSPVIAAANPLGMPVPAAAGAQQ

Turning to `CN1CCN(c2ccc(Nc3ncc(C#N)c(Nc4ccccc4C(N)=O)n3)cc2)CC1.Cl` [TCMDC-134116], the IC50 against MAP3K1 is 1600 nM; against ACVR1B, 4000 nM; at ULK3, 60 nM and 95 nM; at MAP4K5, 280 nM and 290 nM; on CAMKK2 it was 360 nM and 380 nM; on MARK3, 120 nM and 140 nM. For the same compound, the IC50 against MAP3K6 was 1600 nM and 1400 nM; against CSNK2A1, ≤ 32 nM and 34 nM.

Regarding `Cl.NCC1(c2nc(-c3ccc(Cl)c(O)c3)c(-c3ccncc3)[nH]2)CCCCC1` [TCMDC-141154], the half-maximal inhibitory concentration (IC50) at MAP3K1 was above 20000 nM; against ACVR1B it was 590 nM; on ULK3 it was above 20000 nM; on MAP4K5, 5000 nM; on CAMKK2 it was above 20000 nM; on MARK3 it was above 20000 nM. Further, the 50% inhibitory concentration (IC50) against MAP3K6 and against CSNK2A1 was above 20000 nM each time.

As for `CN(C)CC(O)COc1ccc(Nc2ncc([N+](=O)[O-])c(Nc3ccccc3O)n2)cc1.O=C(O)C(F)(F)F` (stereo not drawn) [TCMDC-141399], the IC50 at MAP3K1 was above 20000 nM; against ACVR1B it was above 20000 nM; against ULK3 it was above 20000 nM; against MAP4K5, 4300 nM; against CAMKK2, 5300 nM and 5600 nM; against MARK3, 10000 nM and 6600 nM. Moreover, the figures for the IC50 on MAP3K6 and against CSNK2A1 were above 20000 nM and 92 nM, respectively.

As usually defined, the IC50 is the concentration at which inhibition is half-maximal.
